Source: patent US20050169992A1, “Methods and dosage forms for increasing solubility of drug compositions for controlled delivery” (priority 2003, published 2005)

Key:
[1] = Analytical Profiles of Drug Substances Volume 13, p 425; cited from earlier work
[2] = Saturated solubility of topiramate in de-ionized water and aqueous surfactant solutions at 37° C.; format: physicochemical; conditions: Lutrol F127, F87, F108, F68 and Myrj 52 solutions at 1, 5, 15 weight percent, FIG. 6
Method: Aqueous solubility is determined by adding the therapeutic agent to stirred or agitated water maintained in a constant temperature bath at a temperature of 37 degrees centigrade until equilibrium is established between the dissolved and undissolved states and the concentration of dissolved drug is constant. The resulting solution saturated with active agent is then filtered, typically under pressure through a 0.8-micron Millipore filter, and the concentration in solution is measured by any appropriate analytical method including gravimetric, ultraviolet spectrophotometry, refractive index, refractive index chromatography, and the like.
The present invention involves a method to match the appropriate solid surfactant or blend of surfactants with a particular pharmaceutical active agent to produce the solubilizing core, or S-Core of the present invention. […] Then, pharmaceutical agent is added in excess to the surfactant solutions and the saturated solubility of the pharmaceutical active agent is then measured by an appropriate analytical method such as ultraviolet spectroscopy, chromatographic methods, or gravimetric analysis. […]
The aqueous surfactant solutions were then equilibrated to constant temperature in a 37° C. water bath. […] The resulting saturated solutions of drug were filtered through 0.8-micron filters and analyzed for drug concentration by refractive index chromatography. […]

| Topiramate solubility in water in the presence of surfactant compared to control [2] | Compound | Solubility of phenytoin [1] [µg/mL] |
| --- | --- | --- |
|  | O=C1NC(=O)C(c2ccccc2)(c2ccccc2)N1 [phenytoin] | 20 |
| increased | CC1(C)O[C@@H]2[C@@H](CO[C@@]3(COS(N)(=O)=O)OC(C)(C)O[C@@H]23)O1 [topiramate] |  |
